Measured values from patent US20180163221A1, “TRANSGENIC PLANTS EXPRESSING TYPE 2C PROTEIN PHOSPHATASE ABSCISIC ACID (PP2CABA) PROTEINS AND USES THEREOF” (Academia Sinica, priority 2016, published 2018).

How the values were obtained:
[1] = system: PP2CABA expression in roots; assay: Quantitative RT-PCR of PP2CABA expression in roots of ABA-treated rice seedlings; assay type: in vivo, Oryza sativa; settings: various concentrations of ABA, 24 hours
Procedure: FIG. 3A to FIG. 3D include diagrams showing plants have higher PP2CABA expression under induction by ABA and abiotic stress and are expressed in meristematic tissues. […] Ten-day-old rice seedlings were treated with 5 μM ABA, 200 mM NaCl, dehydration on tissue papers, or 4° C. for 3 hours. Total RNAs were purified from shoots and roots, and subjected to quantitative RT-PCR analysis using gene specific primers. […] Ten-day-old WT rice seedlings were treated with various concentrations of ABA for 24 hours. Total RNAs were purified from roots, and subjected to quantitative RT-PCR analysis using PP2CABA-specific primers. […] Recombinant GST-PP2CABA, GST-PP2CABA (D100A), GST-ABI2, and GST proteins were expressed in E. coli, purified and reacted with a phosphor peptide substrate, RRApTVA, and phosphatase activities were determined by measuring released free phosphate. […]
Total RNA was purified from rice tissues using Trizol reagent (Invitrogen) and treated with RNase-free DNase I (Promega). […] For quantitative RT-PCR analyses, 5-μl of cDNA was mixed with primers and the 2× Power SYBR Green PCR Master Mix reagent (Roche) and applied to an ABI 7500 Real-Time PCR system (Applied Biosystems). The quantitative variation between different samples was evaluated by the Δ-Δ cycle threshold method, and the amplification of ubiquitin 5 was used as an internal control to normalize all data.

rice roots = assay: Histochemical staining of root sections for lignin (acriflavine) and suberin (fluorol yellow 088); assay type: in vivo, Oryza sativa; settings: 1 μM ABA, 3 days
Procedure: FIG. 10A to FIG. 10B include photos showing ABA and PP2CABA enhance the accumulation of lignin and suberin in cell walls of root peripheral layers and increase the root diameter. […] 1 μM ABA was added and seedlings were cultured for another 3 days. […] Roots at 1 cm above the apex were cross-sectioned and stained with acriflavine for lignin and fluorol yellow 088 for suberin. F, fluorescence image; T, transmission image; EP, epidermis; EX, exodermis; SC, sclerenchyma; CO, cortex. Scale bars=10 μm.
Methonal fixed roots were embedded in 5% agar and cut into 100 μm cross sections using a vibratome (DOSAKA DTK-1000). To check for autofluorescence, sections were viewed under a Zeiss Axiolmager Z1 fluorescence microscope with UV illumination using excitation filter G 365, chromatic beam splitter FT 395, and barrier filter LP 420. To check for lignin distribution, sections were stained with Acriflavine as described (Rocha et al., Front Plant Sci, 5:102 (2014)). Sections were imaged with a Zeiss LSM 510 META confocal microscope using a 488 nm laser line for excitation and a 505 to 550 nm band pass filter for emission. To check for suberin lamellae, sections were stained with Fluorol Yellow 088 as described (Brundrett et al., Biotech Histochem, 66:111 (1991); Landgraf et al., Plant Cell, 26:3403 (2014)). […]

rice seedlings [2] = settings: Chen et al. 2015; cited from earlier work
PP2CABA promoter = assay: GUS staining of transgenic rice carrying PP2CABA:GUS treated with ABA; assay type: in vivo, Oryza sativa; settings: 10 μM ABA for 1 day; basal meristem region in root tips, LR primordia and young leaves
Procedure: (§1) FIG. 3A to FIG. 3D include diagrams showing plants have higher PP2CABA expression under induction by ABA and abiotic stress and are expressed in meristematic tissues. […] Ten-day-old rice seedlings were treated with 5 μM ABA, 200 mM NaCl, dehydration on tissue papers, or 4° C. for 3 hours. Total RNAs were purified from shoots and roots, and subjected to quantitative RT-PCR analysis using gene specific primers. […] Ten-day-old WT rice seedlings were treated with various concentrations of ABA for 24 hours. Total RNAs were purified from roots, and subjected to quantitative RT-PCR analysis using PP2CABA-specific primers. […] Recombinant GST-PP2CABA, GST-PP2CABA (D100A), GST-ABI2, and GST proteins were expressed in E. coli, purified and reacted with a phosphor peptide substrate, RRApTVA, and phosphatase activities were determined by measuring released free phosphate. […] Ten-day-old seedlings of transgenic rice carrying PP2CABA:GUS were treated with (lower panel) or without (upper panel) 10 μM ABA for 1 day and then stained for GUS activity. Arrow indicates young leaves.
Tissues were placed in GUS assay buffer containing (0.1 M NaPO4 buffer pH 7.0, 10 mM EDTA, 0.1% Triton X-100, 0.5 mM potassium ferricyanide pH 7.0, and 1.0 mM X-glucuronide) and incubated overnight at 37° C. Vacuum aspiration was applied during initial 30 minutes. […]

rice seedlings [3] = assay: Lateral root growth and root diameter of rice seedlings treated with ABA; assay type: in vivo, Oryza sativa; settings: 1 μM ABA
Procedure: FIG. 5A to FIG. 5B include photos showing plants have lower LR to PR ratio under induction of ABA and expression of PP2CABA. […] Ten-day-old seedlings of segregated wild type (WT) or pp2caba homozygous mutant were treated with (+) or without (−) 1 μM ABA for 3 days. Upper panel: morphology of roots. Lower panel: elongation of LR in boxed area (1 cm above the root tip) of roots in upper panel. LRP (marked by arrowheads) were initiated but not elongated in WT in the presence of ABA. […] Upper panel: morphology of roots. Lower panel: elongation of LR in boxed area (2 cm above the root tip) of roots in upper panel. LRP (marked by arrowheads) were initiated but not elongated in PP2CABA-overexpressing transgenic rice. S: seminal roots. C: crown roots.
The japonica rice (Oryza sativa cv Tainung 67) was used in this study. Plasmids were introduced into Agrobacterium tumefaciens strain EHA105, and rice transformation was performed as described (Chen et al., J Biol Chem, 277:13641 (2002)). The PP2CABA mutant seeds were obtained from the Taiwan Rice Insertional Mutant (TRIM) library (Hsing et al., Plant Molecular Biology, 63:351 (2007)). For hydroponic culture of rice seedlings, seeds were sterilized with 3% NaOCl for 30 minutes, washed extensively with distilled water, and germinated in petri dishes with wetted filter papers at 37° C. in the dark. After 48 h of incubation, germinated seeds were cultivated in Yoshida solution (Yoshida et al., International Rice Research Institute, 3 (1976)). The culture solution was replaced with fresh solution every 2 days. For observation of root growth in glass tube with phytagel, sterilized rice seeds were germinated on the surface of plate with Yoshida solution with 0.3% phytagel without sugar in the dark at 28° C. for about 48 hours. The germinated seedlings were then transplanted to glass tubes, which were 22 cm in height and 4.5 cm in diameter, and each filled with 150 ml Yoshida solution with 0.3% phytagel without sugar. 6 cm plastic dish was used to cover the glass tube and sealed by micropore tape to allow light penetration and gas exchange and prevent the medium from becoming contaminated by external microbes. Seedlings were grown under a 14-h-light/10-h-dark cycle in a 28° C. chamber.

[4] = system: genes essential for lignin and suberin biosynthesis; assay: Quantitative RT-PCR of lignin and suberin biosynthesis genes in roots of ABA-treated WT rice; assay type: in vivo, Oryza sativa; settings: ABA 24 hours, except PAL and CAD
Excerpt: FIG. 9A to FIG. 9B include diagrams showing that ABA and PP2CABA up-regulating the expression of genes essential for lignin and suberin biosynthesis. […] Total RNA was purified from roots and subjected to quantitative RT-PCR analysis using gene specific primers.
Total RNA was purified from rice tissues using Trizol reagent (Invitrogen) and treated with RNase-free DNase I (Promega). The DNase-digested RNA sample was used for reverse transcription by Superscript III reverse transcriptase (Invitrogen). Samples, which served as cDNA stocks for PCR analysis, were stored at −70° C. RT-PCR analysis was performed in a 50-μl solution containing 5-μl cDNA stock using Taq DNA polymerase (Viogene). RT-PCR products were fractionated in a 1.5% agarose gel and visualized by ethidium bromide staining. All RT-PCR analyses were performed from at least two batches of RNA samples with similar results. For quantitative RT-PCR analyses, 5-μl of cDNA was mixed with primers and the 2× Power SYBR Green PCR Master Mix reagent (Roche) and applied to an ABI 7500 Real-Time PCR system (Applied Biosystems). The quantitative variation between different samples was evaluated by the Δ-Δ cycle threshold method, and the amplification of ubiquitin 5 was used as an internal control to normalize all data.

[5] = biological target: T1, phosphor peptide substrate RRApTVA
T1 chain: RRATVA

[6] = system: phosphor peptide substrate, RRApTVA; assay: Phosphatase activity assay of GST fusion proteins (released free phosphate); assay type: biochemical; settings: recombinant GST fusion protein from E. coli, synthetic phosphopeptide
Procedure: as §1
FIG. 6A to FIG. 6E include diagrams showing PP2CABA having two forms which are translated from the first and the second ATG codons. […] The 2nd ATG encodes the Met at amino acid residue 41. Amino acids 1-24 are putative signal peptide (SP). […] Protein loading is shown by the Ponceau S staining (lower panel). […]

Molecule: CC1=CC(=O)CC(C)(C)[C@@]1(O)/C=C/C(C)=C\C(=O)O [ABA, abscisic acid]
- dose dependence of PP2CABA expression in roots [1]: increased with ABA concentrations in a dose-dependent manner
- accumulation of lignin and suberin in endodermal and exodermal cell layers in roots (rice roots): enhanced the accumulation of lignin and suberin
- ABA concentrations that enhance LR growth (rice seedlings [2]): ≤ 0.1 µM
- ABA concentrations that inhibit LR growth (rice seedlings [2]): ≥ 0.2 µM
- PP2CABA promoter activity (GUS) (PP2CABA promoter): induced
- LR growth, WT compared with pp2caba (rice seedlings [3]): more severely inhibited in WT than in pp2caba mutant
- LR growth in WT (rice seedlings [3]; 3 days, WT seedlings, maturation zones of roots): completely inhibited
- LR growth in pp2caba (rice seedlings [3]; 3 days, pp2caba homozygous mutant, maturation zones of roots): stunted
- root diameter (rice seedlings [3]; both WT and pp2caba): enlarged
- expression of lignin and suberin biosynthesis genes [4]: induced

B1: GST-PPCABA(41-327) (protein)
chain: MGLAGEAAGSPGSGGGFSANGKFSYGYASSPGKRSSMEDFYDTRIDGVDGETVGLFGVFDGHGGARAAEFVKQNLFTNLIKHPKLFSDTKSAIAETYTSTDSELLKAETSHNRDAGSTASTAILVGDRLLVANVGDSRAVICRGGDAIAVSRDHKPDQSDERQRIEDAGGFVMWAGTWRVGGVLAVSRAFGDKLLKQYVVADPEIKEEVVDSSLEFLILASDGLWDVVTNEEAVAMVKPILDSEQAAKKLLQEASQRGSADNITCLVVRFLEQENHLPERPTNDQAS
- phosphatase activity (released free phosphate) [5]: both of L form and S form of PP2CABA have phosphatase activities
- phosphatase activity [6]: have phosphatase activities

B2: GST-PP2CABA (protein)
chain: LSQGAEEEEDDGEVRLMGLAGEAAGSPGSGGGFSANGKFSYGYASSPGKRSSMEDFYDTRIDGVDGETVGLFGVFDGHGGARAAEFVKQNLFTNLIKHPKLFSDTKSAIAETYTSTDSELLKAETSHNRDAGSTASTAILVGDRLLVANVGDSRAVICRGGDAIAVSRDHKPDQSDERQRIEDAGGFVMWAGTWRVGGVLAVSRAFGDKLLKQYVVADPEIKEEVVDSSLEFLILASDGLWDVVTNEEAVAMVKPILDSEQAAKKLLQEASQRGSADNITCLVVRFLEQENHLPERPTNDQAS
- phosphatase activity (released free phosphate) [5]: GST-PP2CABA fusion protein expressed and purified from E. coli exhibited phosphatase activity

B3: GST-PP2CABA(25-327) (protein)
chain: LSQGAEEEEDDGEVRLMGLAGEAAGSPGSGGGFSANGKFSYGYASSPGKRSSMEDFYDTRIDGVDGETVGLFGVFDGHGGARAAEFVKQNLFTNLIKHPKLFSDTKSAIAETYTSTDSELLKAETSHNRDAGSTASTAILVGDRLLVANVGDSRAVICRGGDAIAVSRDHKPDQSDERQRIEDAGGFVMWAGTWRVGGVLAVSRAFGDKLLKQYVVADPEIKEEVVDSSLEFLILASDGLWDVVTNEEAVAMVKPILDSEQAAKKLLQEASQRGSADNITCLVVRFLEQENHLPERPTNDQAS
- phosphatase activity (released free phosphate) [5]: both of L form and S form of PP2CABA have phosphatase activities

B4: GST-PP2CABA: GST-PP2CABA fusion protein expressed and purified from E. coli (protein)
chain: LSQGAEEEEDDGEVRLMGLAGEAAGSPGSGGGFSANGKFSYGYASSPGKRSSMEDFYDTRIDGVDGETVGLFGVFDGHGGARAAEFVKQNLFTNLIKHPKLFSDTKSAIAETYTSTDSELLKAETSHNRDAGSTASTAILVGDRLLVANVGDSRAVICRGGDAIAVSRDHKPDQSDERQRIEDAGGFVMWAGTWRVGGVLAVSRAFGDKLLKQYVVADPEIKEEVVDSSLEFLILASDGLWDVVTNEEAVAMVKPILDSEQAAKKLLQEASQRGSADNITCLVVRFLEQENHLPERPTNDQAS
modifications: left off: a dimerising Fc or GST
notes: GST-PP2CABA fusion protein expressed and purified from E. coli
- phosphatase activity [6]: exhibited phosphatase activity
